This note sets out measurements from PubChem BioAssay AID1259407 (Chemical Carcinogenesis Research Information System (CCRIS), 2018).

SMILES strings stand for the structures. Active and inactive are the calls of the source. How the calls were made is not given here.

In the data set the test system is CCRIS mutagenicity, Ames/micronucleus/aberration tests. Briefly: CCRIS mutagenicity studies.
Setting [1] is: Test System: AMES SALMONELLA TYPHIMURIUM, Strain/Indicator: TA98, Metabolic Activation: NONE, Method: STANDARD PLATE.
The mark [2] stands for this setting: Test System: AMES SALMONELLA TYPHIMURIUM, Strain/Indicator: TA100, Metabolic Activation: NONE, Method: STANDARD PLATE.
Where [3] appears, read: Test System: AMES SALMONELLA TYPHIMURIUM, Strain/Indicator: TA98, Metabolic Activation: NONE, Method: PREINCUBATION
Setting [4] is: Test System: AMES SALMONELLA TYPHIMURIUM, Strain/Indicator: TA98, Metabolic Activation: RAT, LIVER, S-9, AROCLOR 1254, Method: PREINCUBATION
The mark [5] stands for this setting: Test System: AMES SALMONELLA TYPHIMURIUM, Strain/Indicator: TA100, Metabolic Activation: NONE, Method: PREINCUBATION
Setting [6] is: Test System: AMES SALMONELLA TYPHIMURIUM, Strain/Indicator: TA100, Metabolic Activation: RAT, LIVER, S-9, AROCLOR 1254, Method: PREINCUBATION
The mark [7] stands for this setting: Test System: AMES SALMONELLA TYPHIMURIUM, Strain/Indicator: TA1537, Metabolic Activation: NONE, Method: PREINCUBATION
Where [8] appears, read: Test System: AMES SALMONELLA TYPHIMURIUM, Strain/Indicator: TA1537, Metabolic Activation: RAT, LIVER, S-9, AROCLOR 1254, Method: PREINCUBATION

As to `O=C(Nc1ccc([N+](=O)[O-])cc1)c1csc([N+](=O)[O-])c1`, the mutagenic call was “active; positive” under setting [1] and “active; positive” under setting [2].
For `CC(C)c1ccc2oc3nc(N)c(C(=O)O)cc3c(=O)c2c1`, the mutagenic call was “inactive; negative” under setting [3]; “inactive; negative” under setting [4]; “inactive; negative” under setting [5]; “inactive; negative” under setting [6]; “inactive; negative” under setting [7]; “inactive; negative” under setting [8]. Besides, the mutagenic call reads like this: (Test System: E. COLI, Strain/Indicator: WP2 (HCR), Metabolic Activation: NONE, Method: PREINCUBATION) “inactive; negative”; (Test System: E. COLI, Strain/Indicator: WP2 (HCR), Metabolic Activation: RAT, LIVER, S-9, AROCLOR 1254, Method: PREINCUBATION) “inactive; negative”.
Take `ClC(Cl)c1ccccc1`: the mutagenic call (Test System: AMES SALMONELLA TYPHIMURIUM, Strain/Indicator: TA98, Metabolic Activation: HAMSTER, LIVER, S-9, AROCLOR 1254 (30%), Method: PREINCUBATION) is “inactive; negative”; the mutagenic call under setting [3] is “active; positive”; the mutagenic call (Test System: AMES SALMONELLA TYPHIMURIUM, Strain/Indicator: TA98, Metabolic Activation: RAT, LIVER, S-9, AROCLOR 1254 (30%), Method: PREINCUBATION) was “active; positive”; the mutagenic call (Test System: AMES SALMONELLA TYPHIMURIUM, Strain/Indicator: TA100, Metabolic Activation: HAMSTER, LIVER, S-9, AROCLOR 1254 (30%), Method: PREINCUBATION) is “active; positive”; the mutagenic call under setting [5] is “active; positive”; the mutagenic call (Test System: AMES SALMONELLA TYPHIMURIUM, Strain/Indicator: TA100, Metabolic Activation: RAT, LIVER, S-9, AROCLOR 1254 (30%), Method: PREINCUBATION) is “active; positive”. Moreover, under setting [6], the mutagenic call was “active; positive”.
Regarding `OCCN(CCO)c1ccc2ccccc2c1`, the mutagenic call by setting is: under setting [2], “inactive; negative”; (Test System: AMES SALMONELLA TYPHIMURIUM, Strain/Indicator: TA100, Metabolic Activation: RAT, LIVER, S-9, AROCLOR (10%), Method: STANDARD PLATE) “active; positive”.
With `COc1c(O)cc2c3c1-c1ccccc1C[C@H]3N(C)CC2`, the mutagenic call by setting is: (Test System: AMES SALMONELLA TYPHIMURIUM, Strain/Indicator: TA98, Metabolic Activation: RAT, LIVER, S-9, PHENOBARBITAL AND BETA-NAPHTHOFLAVONE, Method: PREINCUBATION) “active; positive”; (Test System: AMES SALMONELLA TYPHIMURIUM, Strain/Indicator: TA100, Metabolic Activation: RAT, LIVER, S-9, PHENOBARBITAL AND BETA-NAPHTHOFLAVONE, Method: PREINCUBATION) “active; positive”.
With `OC1CCCCC1`, the mutagenic call by setting is: (Test System: AMES SALMONELLA TYPHIMURIUM, Strain/Indicator: TA98, Metabolic Activation: HAMSTER, LIVER, S-9, AROCLOR 1254, Method: PREINCUBATION) “inactive; negative”; under setting [3], “inactive; negative”; under setting [4], “inactive; negative”; (Test System: AMES SALMONELLA TYPHIMURIUM, Strain/Indicator: TA100, Metabolic Activation: HAMSTER, LIVER, S-9, AROCLOR 1254, Method: PREINCUBATION) “inactive; negative”; under setting [5], “inactive; negative”; under setting [6], “inactive; negative”. Besides, the mutagenic call by setting is: (Test System: AMES SALMONELLA TYPHIMURIUM, Strain/Indicator: TA1535, Metabolic Activation: HAMSTER, LIVER, S-9, AROCLOR 1254, Method: PREINCUBATION) “inactive; negative”; (Test System: AMES SALMONELLA TYPHIMURIUM, Strain/Indicator: TA1535, Metabolic Activation: NONE, Method: PREINCUBATION) “inactive; negative”; (Test System: AMES SALMONELLA TYPHIMURIUM, Strain/Indicator: TA1535, Metabolic Activation: RAT, LIVER, S-9, AROCLOR 1254, Method: PREINCUBATION) “inactive; negative”; (Test System: AMES SALMONELLA TYPHIMURIUM, Strain/Indicator: TA1537, Metabolic Activation: HAMSTER, LIVER, S-9, AROCLOR 1254, Method: PREINCUBATION) “inactive; negative”; under setting [7], “inactive; negative”; under setting [8], “inactive; negative”.
As for `c1cnc2c3c(ccc2c1)C1OC1CC3` (stereo unspecified), under setting [2], the mutagenic call is “inactive; negative”.
With `c1ccc2sc(SNC3CCCCC3)nc2c1`, the mutagenic call runs as follows: under setting [1], “inactive; negative”; (Test System: AMES SALMONELLA TYPHIMURIUM, Strain/Indicator: TA98, Metabolic Activation: S-9, Method: STANDARD PLATE) “inactive; negative”; under setting [2], “inactive; negative”; (Test System: AMES SALMONELLA TYPHIMURIUM, Strain/Indicator: TA100, Metabolic Activation: S-9, Method: STANDARD PLATE) “inactive; negative”.
For the compound `Nc1ncnc2c1ncn2C(c1ccccc1)c1ccccc1`, the mutagenic call (Test System: AMES SALMONELLA TYPHIMURIUM, Strain/Indicator: TA97, Metabolic Activation: NONE, Method: STANDARD PLATE) was “inactive; negative”; the mutagenic call (Test System: AMES SALMONELLA TYPHIMURIUM, Strain/Indicator: TA97, Metabolic Activation: RAT, LIVER, S-9, AROCLOR 1254, Method: STANDARD PLATE) is “inactive; negative”; the mutagenic call under setting [1] was “inactive; negative”; the mutagenic call (Test System: AMES SALMONELLA TYPHIMURIUM, Strain/Indicator: TA98, Metabolic Activation: RAT, LIVER, S-9, AROCLOR 1254, Method: STANDARD PLATE) is “active; positive”; the mutagenic call under setting [2] is “inactive; negative”; the mutagenic call (Test System: AMES SALMONELLA TYPHIMURIUM, Strain/Indicator: TA100, Metabolic Activation: RAT, LIVER, S-9, AROCLOR 1254, Method: STANDARD PLATE) is “inactive; negative”.
`ClCCC(Br)CBr` (stereo unspecified): the mutagenic call by setting is: (Test System: AMES SALMONELLA TYPHIMURIUM, Strain/Indicator: TA100, Metabolic Activation: RAT, LIVER, MICROSOMES, PHENOBARBITAL, Method: PREINCUBATION) “inactive; negative”; (Test System: AMES SALMONELLA TYPHIMURIUM, Strain/Indicator: TA100, Metabolic Activation: RAT, LIVER, MICROSOMES, Method: PREINCUBATION) “inactive; negative”.
